Assay results from US11970523B2 (priority 2018, dated 2024).

Assay: Weight gain slowing test
Assay type: in vivo, Male C57bl/6 mice
Settings: high-fat fed mice, 50 nmol/kg every day for 56 days
Description: (§1) Male C57bl/6 mice were fed with high-fat feed for 4 weeks. The mice with body weights greater than 30 g were selected for the test, and were randomly divided into 26 groups, 8 mice per group. […] Fasting body weights of each group of mice on Day 1 and Day 56 were tested, and the average body weight change of each group of mice was examined.
as §1, with “7” for “26”
as §1, with “8” for “26”

Substance: Oxyntomodulin [OXM, reference compound]
- fasting body weight, Day 1 (Table 3, in g (unit assumed)): 32.5 ± 0.7
- fasting body weight, Day 56 (Table 3, in g (unit assumed)): 40.3 ± 1.3
- fasting body weight, Day 1 (Table 5, in g (unit assumed)): 31.0 ± 0.8
- fasting body weight, Day 56 (Table 5, in g (unit assumed)): 41.0 ± 0.7
- fasting body weight, Day 1 (Table 7, in g (unit assumed)): 30.5 ± 0.6
- fasting body weight, Day 56 (Table 7, in g (unit assumed)): 39.6 ± 1.3
- fasting body weight, Day 1 (Table 9, in g (unit assumed)): 31.9 ± 0.6
- fasting body weight, Day 56 (Table 9, in g (unit assumed)): 42.1 ± 1.3
- fasting body weight, Day 56 (Table 11): 43.3±
- fasting body weight, Day 1 (Table 11, in g (unit assumed)): 32.7
